Where “and” joins values, the source holds several entries; their conditions need not be identical. Equal entries are not always repeated. Where two headings read alike, the source gives them in different places. Marks after values point to notes of the source that are not given here.
Tests used:
[1] = target: T1, HIV-1 RT-associated RNase H activity (Human immunodeficiency virus type 1 group M subtype B, UniProt P04585); test: RNase H polymerase-independent cleavage assay; assay type: biochemical; details: for IC50: compound concentration required to inhibit the HIV-1 RNase H activity by 50%; for remaining activity at 100 µM: read-out: HIV-1 RNase H percentage of control
T1 construct: The 1:1 ration between the p66/p51 subunits was also verified; made in house; host or cells: E. coli strain M15 with the p6HRT-prot vector
Procedure: HIV-1 RT group M subtype B. Heterodimeric RT was expressed and purified essentially as previously described. Briefly, protein was expressed in E. coli strain M15 containing the p6HRT-prot vector, induced with 1.7 mM isopropyl β-D-1-thiogalactopyranoside for 4 h. Protein purification was carried out with a BioLogic LP system (Biorad), using a combination of immobilized metal affinity and ion exchange chromatography. First, crude bacterial extract was clarified by centrifugation and loaded onto a Ni^2+-NTA-Sepharose column pre-equilibrated with a loading buffer (50 mM sodium phosphate buffer pH 7.8, containing 0.3 M NaCl, 10% glycerol, and 10 mM imidazole); RT was eluted with an imidazole gradient in wash buffer (0–0.5 M). Fractions were collected and protein purity was checked by SDS-PAGE and found to be higher than 90%. The 1:1 ration between the p66/p51 subunits was also verified. Enzyme-containing fractions were pooled and diluted 1:1 with 50 mM sodium phosphate buffer pH 7.0, containing 10% glycerol, and then loaded into a Hi-trap heparin HP GE (Healthcare Lifescience) using a loading buffer (50 mM sodium phosphate buffer pH 7.0, containing 10% glycerol and 150 mM NaCl). RT was eluted with Elute Buffer 2 (50 mM Sodium Phosphate pH 7.0, 10% glycerol, 1 M NaCl). Fractions were collected and protein was dialyzed and stored in a buffer containing 50 mM Tris-HCl pH 7.0, 25 mM NaCl, 1 mM EDTA, and 50% glycerol. Catalytic activities and protein concentrations were determined. Enzyme-containing fractions were pooled and aliquots were stored at −80 °C.
HIV RT-associated RNase H activity was measured as described (using the RNase H inhibitor RDS175911 as a control.) In a 100 µL reaction volume containing 50 mM Tris-HCl buffer with pH 7.8, 6 mM MgCl2, 1 mM dithiothreitol (DTT), 80 mM KCl, 0.25 µM hybrid RNA/DNA 5′-[…]-Fluorescin-3′ (HPLC, dry, QC: Mass Check) (available from Metabion (Planegg, Germany)) 5′-Dabcyl-[…]-3′ (HPLC, dry, QC: Mass Check), there were increasing concentrations of an inhibitor, whose dilution was made in water, and 20 ng of wt RT, according to a linear range of dose-response curve. The reaction mixture was incubated for 1 h at 37 °C, stopped by the addition of EDTA, and products were measured with a multilabel counter plate reader Victor 3 (Perkin Elmer model 1420-051 (Waltham, MA, USA)) equipped with filters for 490/528 nm (excitation/emission wavelength).

[2] = target: T2, HIV-1 IN in the presence of LEDGF/p75 (Human immunodeficiency virus type 1 group M subtype B, UniProt P04585); test: HTRF LEDGF-dependent integrase assay; assay type: biochemical; details: for IC50: concentration required to inhibit IN catalytic activities, in the presence of LEDGF, by 50%; for remaining activity at 100 µM: in the presence of 100 µM compound concentration, read-out: HIV-1 IN LEDGF-dependent percentage of control
T2 construct: Recombinant 6xHis tagged IN protein was expressed and purified as described previously; 6xHis; made in house; host or cells: Escherichia coli BL21 (DE3) for IN
Procedure: Recombinant 6xHis tagged IN protein was expressed and purified as described previously. Briefly, IN was expressed in Escherichia coli strain BL21 (DE3). Initial purification was done using a Ni-Sepharose column with an imidazole gradient from 20 mM to 500 mM concentration in a 50 mM HEPES (pH 7.5) buffer containing 1 M NaCl, 7.5 mM CHAPS, and 2 mM β-mercaptoethanol. This was followed by a heparin column purification with a NaCl gradient from 0 to 1 M concentrations. His-LEDGF was purified by loading precipitate of cell lysate onto a heparin column and was eluted with an increasing NaCl gradient (200 mM to 1 M) in a 50 mM HEPES (pH 7.5) buffer containing 7.5 mM CHAPS and 2 mM β-mercaptoethanol. Peak fractions were pooled and loaded onto a Superdex 200 GL column and eluted in a buffer containing 50 mM HEPES (pH 7.5), 200 mM NaCl, and 2 mM β-mercaptoethanol. Fractions containing LEDGF were pooled and stored in 15% glycerol at −80 °C.
The HTRF assay allows measuring the inhibition of 3′-processing and strand-transfer IN reactions in the presence of recombinant LEDGF/p75 cellular cofactor [43]. Briefly, 50 nM IN was pre-incubated with an increasing concentration of compounds for 1 h at room temperature in reaction buffer containing 20 mM HEPES pH 7.5, 1 mM DTT, 1% Glycerol, 20 mM MgCl2, 0.05% Brij-35, and 0.1 mg/mL BSA. […] After the incubation, 4 nM of Europium-Streptavidin were added to the reaction mixture, and the HTRF signal was recorded using a Perkin Elmer Victor 3 plate reader using a 314 nm for the excitation wavelength and 668 and 620 nm for the wavelength of the acceptor and the donor substrate emission, respectively.

HIV-1 RT = details: cited from earlier work
[3] = in the presence of 100 µM compound concentration

Compound	IC50 [1] [µM]	remaining activity at 100 µM [1, 3] [%]	IC50 [2]	remaining activity at 100 µM [2] [%]	HIV-1 IN inhibition (in words) [2]	HIV-1 RNase H inhibition (in words) [1]	HIV-1 RT IC50 (HIV-1 RT; baicalin from Scutellaria baicalensis) [µg/mL]	HIV-1 RNase H percentage of control [1, 3]	HIV-1 RT IC50 (HIV-1 RT; kaempferol from Securigera securidaca) [µg/mL]
CO[C@H]1[C@@H]2C=CO[C@@H](O[C@@H]3O[C@H](CO)[C@@H](O)[C@H](O)[C@H]3O)[C@@H]2[C@@]2(CO)O[C@@H]12 [Compound 4, methylcatalpol]	> 100	100	> 100 µM	80					
C[C@@H]1O[C@@H](OC[C@H]2O[C@@H](Oc3c(-c4ccc(O)c(O)c4)oc4cc(O)cc(O)c4c3=O)[C@H](O)[C@@H](O)[C@@H]2O)[C@H](O)[C@H](O)[C@H]1O [Compound 8, rutin]	> 100	100	0.33 ± 0.04 µM		submicromolar concentration				
OCC1=C[C@@H](O)[C@@H]2C=CO[C@@H](O[C@@H]3O[C@H](CO)[C@@H](O)[C@H](O)[C@H]3O)[C@H]12 [Compound 2, aucubin]	> 100	100	> 100 µM	100					
O=c1c(OC2O[C@H](CO)[C@@H](O)[C@H](O)[C@H]2O)c(-c2ccc(O)cc2)oc2cc(O)cc(O)c12 (stereo partly shown) [Compound 11, kaempferol-3-O-glucopyranoside]	> 100	100	0.11 µM and 0.024 µM		submicromolar concentration				
COC1C2C=COC(OC3OC(CO)C(O)C(O)C3O)C2C2(O)COC12 (stereo not shown) [Compound 5, trifoliatoside A]	> 100	93	95.5 ± 4.5 µM		able to inhibit IN, selectively				
C[C@]1(O)C[C@@H](O)[C@@H]2C=CO[C@@H](O[C@@H]3O[C@H](CO)[C@@H](O)[C@H](O)[C@H]3O)[C@@H]21 [Compound 3, ajugol]	> 100	100	> 100 µM	77					
CCOC(=O)C(=O)CC(=O)/C=C/c1cccn1Cc1ccccc1Cl [RDS1759, reference compound]	7.3 ± 0.1								
C[C@]1(OC(=O)/C=C/c2ccccc2)C[C@@H](O)C2C=CO[C@@H](O[C@@H]3O[C@H](CO)[C@@H](O)[C@H](O)[C@H]3O)C21 (stereo partly shown) [Compound 12, laterioside]	> 100	100	> 100 µM	80	inactive	inactive			
OC[C@H]1O[C@@H](O[C@@H]2OC=C[C@H]3[C@H](O)[C@@H]4O[C@]4(CO)[C@@H]23)[C@H](O)[C@@H](O)[C@@H]1O [Compound 1, catalpol]	> 100	100	> 100 µM	100					
CO[C@H]1[C@@H]2C[C@@H]3OC[C@](O)([C@H]2[C@H](O[C@@H]2O[C@H](CO)[C@@H](O)[C@H](O)[C@H]2O)O3)[C@@H]1O [Compound 6, methylscutelloside]	> 100	100	100 ± 0.5 µM						
CC(=O)O[C@@]1(C)C[C@@H](O)C2C=CO[C@@H](O[C@@H]3O[C@H](CO)[C@@H](O)[C@H](O)[C@H]3O)C21 (stereo partly shown) [Compound 7, ajugoside]	> 100	100	74 ± 3.5 µM		able to inhibit IN, selectively				
C[C@]1(OC(=O)/C=C\c2ccccc2)C[C@@H](O)C2C=CO[C@@H](O[C@@H]3O[C@H](CO)[C@@H](O)[C@H](O)[C@H]3O)C21 (stereo partly shown) [Compound 13, trifoliatoside B]	> 100	92	5.96 ± 0.1 µM						
O=C(O)[C@H]1O[C@@H](Oc2cc3oc(-c4ccccc4)cc(=O)c3c(O)c2O)[C@H](O)[C@@H](O)[C@@H]1O [baicalin]							0.2		
kaempferol-3-O-rutinoside [Compound 10]								>100 (100%) ^c	
CC1OC(Oc2cc(O)c3c(=O)c(OC4OC(CO)C(O)C(O)C4O)c(-c4ccc(O)cc4)oc3c2)C(O)C(O)C1O (stereo not shown) [Compound 9, kaempferol-7-O-rhamnosyl-3-O-glucopyranoside]	> 100	100	0.024 µM and 0.11 µM		submicromolar concentration				
O=c1c(O)c(-c2ccc(O)cc2)oc2cc(O)cc(O)c12 [kaempferol]									50
